What was measured:
[1] = biological target: Proto-oncogene tyrosine-protein kinase Src (Gallus gallus, UniProt P00523); test: Kinase Assay
Protocol: (§1) Selected compounds were screened against a panel of mammalian kinases. Compounds were supplied in DMSO and screened in duplicates at 100 uM concentration using a radioactive (33P-ATP) filter-binding-assay.

[2] = biological target: SRSF protein kinase 1 (Homo sapiens, UniProt Q96SB4); test: Kinase Assay
Protocol: as §1

[3] = biological target: Ribosomal protein S6 kinase alpha-3 (Homo sapiens, UniProt P51812); test: Kinase Assay
Protocol: as §1

[4] = biological target: MAP kinase-activated protein kinase 3 (Homo sapiens, UniProt Q16644); test: Kinase Assay
Protocol: as §1

[5] = biological target: Casein kinase II subunit alpha (Homo sapiens, UniProt P68400); test: Kinase Assay
Protocol: as §1

[6] = biological target: Fibroblast growth factor receptor 1 (Homo sapiens, UniProt P11362); test: Kinase Assay
Protocol: as §1

[7] = biological target: T1, Mitogen-activated protein kinase kinase kinase 7 (Homo sapiens, UniProt O43318); test: Kinase Assay
T1 sequence (O43318 whole entry): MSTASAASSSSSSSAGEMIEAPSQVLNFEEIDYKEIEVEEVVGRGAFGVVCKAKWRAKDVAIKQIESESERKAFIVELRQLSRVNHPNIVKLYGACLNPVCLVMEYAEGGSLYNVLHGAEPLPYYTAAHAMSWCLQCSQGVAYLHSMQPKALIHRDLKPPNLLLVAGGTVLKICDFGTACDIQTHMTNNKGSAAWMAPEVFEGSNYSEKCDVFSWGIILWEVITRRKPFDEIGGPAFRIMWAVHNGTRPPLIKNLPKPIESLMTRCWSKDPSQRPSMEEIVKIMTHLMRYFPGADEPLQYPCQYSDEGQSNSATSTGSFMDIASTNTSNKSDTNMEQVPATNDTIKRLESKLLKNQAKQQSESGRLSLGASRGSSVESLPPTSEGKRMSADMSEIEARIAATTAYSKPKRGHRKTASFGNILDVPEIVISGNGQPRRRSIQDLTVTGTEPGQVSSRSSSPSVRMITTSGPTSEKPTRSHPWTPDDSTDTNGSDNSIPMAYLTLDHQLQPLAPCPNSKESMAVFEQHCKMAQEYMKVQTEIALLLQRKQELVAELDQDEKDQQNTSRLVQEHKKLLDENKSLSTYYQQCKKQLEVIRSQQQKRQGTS
Protocol: as §1

[8] = biological target: Cyclin-dependent kinase 2 (Homo sapiens, UniProt P24941); test: Kinase Assay
Protocol: as §1

[9] = biological target: T2, Aurora kinase A (Homo sapiens, UniProt O14965); test: Kinase Assay
T2 sequence (O14965 whole entry): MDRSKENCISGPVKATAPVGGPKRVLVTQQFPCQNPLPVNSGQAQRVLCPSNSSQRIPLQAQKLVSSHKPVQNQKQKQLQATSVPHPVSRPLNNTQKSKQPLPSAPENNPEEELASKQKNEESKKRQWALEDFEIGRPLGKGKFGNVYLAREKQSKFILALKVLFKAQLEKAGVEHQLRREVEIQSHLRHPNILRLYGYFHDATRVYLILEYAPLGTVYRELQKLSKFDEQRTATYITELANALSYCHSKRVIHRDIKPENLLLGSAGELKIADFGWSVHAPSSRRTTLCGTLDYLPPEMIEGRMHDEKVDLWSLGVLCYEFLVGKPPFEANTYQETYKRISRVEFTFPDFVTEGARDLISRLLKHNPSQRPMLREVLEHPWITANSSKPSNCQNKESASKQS
Protocol: as §1

[10] = biological target: Dual specificity protein kinase CLK2 (Homo sapiens, UniProt P49760); test: Kinase Assay
Protocol: as §1

[11] = biological target: Insulin-like growth factor 1 receptor (Homo sapiens, UniProt P08069); test: Kinase Assay
Protocol: as §1

[12] = biological target: Germinal center kinase MAP4K2 (Homo sapiens); test: Selected compounds were screened against a panel of mammalian kinases. Compounds were supplied in DMSO and screened in duplicates at 100 uM concentration using a radioactive (33P-ATP) filter-binding-assay.
[13] = biological target: Vascular endothelial growth factor receptor 2 (Homo sapiens, UniProt P35968); test: Kinase Assay
Protocol: as §1

[14] = biological target: Tyrosine-protein kinase Yes (Homo sapiens, UniProt P07947); test: Kinase Assay
Protocol: as §1

[15] = biological target: Serine/threonine-protein kinase Chk2 (Homo sapiens, UniProt O96017); test: Kinase Assay
Protocol: as §1

[16] = biological target: T3, Serine/threonine-protein kinase Sgk1 (Homo sapiens, UniProt O00141); test: Kinase Assay
T3 sequence (O00141 whole entry): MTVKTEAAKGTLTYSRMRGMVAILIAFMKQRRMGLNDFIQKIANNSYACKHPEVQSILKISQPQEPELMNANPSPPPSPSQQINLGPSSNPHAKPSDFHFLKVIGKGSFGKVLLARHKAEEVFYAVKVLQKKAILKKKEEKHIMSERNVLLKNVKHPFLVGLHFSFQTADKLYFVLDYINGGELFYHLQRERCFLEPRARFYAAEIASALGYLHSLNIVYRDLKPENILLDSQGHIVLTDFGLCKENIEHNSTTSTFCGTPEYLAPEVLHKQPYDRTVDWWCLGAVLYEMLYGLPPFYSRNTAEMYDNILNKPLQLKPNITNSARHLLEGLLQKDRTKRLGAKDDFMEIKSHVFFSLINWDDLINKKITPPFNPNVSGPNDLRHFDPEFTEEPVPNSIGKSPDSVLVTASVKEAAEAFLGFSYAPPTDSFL
Protocol: as §1

[17] = biological target: Glycogen synthase kinase-3 beta (Homo sapiens, UniProt P49841); test: Kinase Assay
Protocol: as §1

[18] = biological target: T4, Ephrin type-B receptor 3 (Homo sapiens, UniProt P54753); test: Kinase Assay
T4 sequence (P54753 whole entry): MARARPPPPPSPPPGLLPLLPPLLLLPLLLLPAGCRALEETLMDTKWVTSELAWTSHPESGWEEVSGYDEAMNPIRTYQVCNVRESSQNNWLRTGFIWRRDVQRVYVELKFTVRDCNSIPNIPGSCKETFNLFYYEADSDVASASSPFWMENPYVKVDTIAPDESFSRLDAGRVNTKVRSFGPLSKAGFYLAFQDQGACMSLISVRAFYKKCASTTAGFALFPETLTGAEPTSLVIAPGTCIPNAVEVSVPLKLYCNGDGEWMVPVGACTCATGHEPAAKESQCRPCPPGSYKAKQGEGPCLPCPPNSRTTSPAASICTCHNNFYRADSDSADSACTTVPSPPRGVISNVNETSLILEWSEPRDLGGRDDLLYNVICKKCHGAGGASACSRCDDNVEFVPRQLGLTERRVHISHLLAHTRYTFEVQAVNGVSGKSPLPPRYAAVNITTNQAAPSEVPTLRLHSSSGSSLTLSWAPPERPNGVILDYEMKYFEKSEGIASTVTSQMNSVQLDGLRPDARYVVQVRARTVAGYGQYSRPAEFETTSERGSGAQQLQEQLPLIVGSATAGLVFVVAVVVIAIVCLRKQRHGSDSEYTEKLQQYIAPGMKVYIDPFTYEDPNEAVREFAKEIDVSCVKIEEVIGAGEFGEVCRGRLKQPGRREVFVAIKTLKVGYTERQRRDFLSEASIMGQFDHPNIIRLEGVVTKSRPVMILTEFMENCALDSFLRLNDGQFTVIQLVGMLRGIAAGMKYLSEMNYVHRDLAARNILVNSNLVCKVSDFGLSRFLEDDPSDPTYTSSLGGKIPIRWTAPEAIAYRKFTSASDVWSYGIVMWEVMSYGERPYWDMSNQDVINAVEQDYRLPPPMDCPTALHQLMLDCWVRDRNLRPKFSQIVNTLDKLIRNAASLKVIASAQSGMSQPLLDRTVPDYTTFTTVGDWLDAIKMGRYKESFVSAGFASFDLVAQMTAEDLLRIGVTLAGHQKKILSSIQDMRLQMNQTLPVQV
Protocol: as §1

[19] = biological target: Serine/threonine-protein kinase pim-1 (Homo sapiens, UniProt P11309); test: Kinase Assay
Protocol: as §1

[20] = biological target: Serine/threonine-protein kinase pim-3 (Homo sapiens, UniProt Q86V86); test: Kinase Assay
Protocol: as §1

Sequence of Insulin-like growth factor 1 receptor (P08069 31-736 limits assumed): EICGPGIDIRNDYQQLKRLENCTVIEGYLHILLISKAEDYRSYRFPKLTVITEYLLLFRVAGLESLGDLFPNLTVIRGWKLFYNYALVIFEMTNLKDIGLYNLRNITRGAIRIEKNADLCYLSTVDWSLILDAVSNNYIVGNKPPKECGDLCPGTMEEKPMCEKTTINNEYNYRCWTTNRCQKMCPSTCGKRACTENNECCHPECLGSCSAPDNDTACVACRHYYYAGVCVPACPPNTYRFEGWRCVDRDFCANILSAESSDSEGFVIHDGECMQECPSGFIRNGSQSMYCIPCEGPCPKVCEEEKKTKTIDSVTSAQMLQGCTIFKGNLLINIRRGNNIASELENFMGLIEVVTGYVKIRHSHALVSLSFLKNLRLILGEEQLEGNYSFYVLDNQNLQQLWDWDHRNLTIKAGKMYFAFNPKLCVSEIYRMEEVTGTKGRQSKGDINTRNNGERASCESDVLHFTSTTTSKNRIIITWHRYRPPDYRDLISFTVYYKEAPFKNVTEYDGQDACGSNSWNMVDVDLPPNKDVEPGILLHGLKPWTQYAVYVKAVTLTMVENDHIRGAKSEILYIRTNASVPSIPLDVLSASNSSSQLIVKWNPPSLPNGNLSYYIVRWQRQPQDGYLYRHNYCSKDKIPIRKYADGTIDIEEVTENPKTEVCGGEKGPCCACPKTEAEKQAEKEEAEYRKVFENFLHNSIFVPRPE
Sequence of Insulin-like growth factor 1 receptor (P08069 741-1367 limits assumed): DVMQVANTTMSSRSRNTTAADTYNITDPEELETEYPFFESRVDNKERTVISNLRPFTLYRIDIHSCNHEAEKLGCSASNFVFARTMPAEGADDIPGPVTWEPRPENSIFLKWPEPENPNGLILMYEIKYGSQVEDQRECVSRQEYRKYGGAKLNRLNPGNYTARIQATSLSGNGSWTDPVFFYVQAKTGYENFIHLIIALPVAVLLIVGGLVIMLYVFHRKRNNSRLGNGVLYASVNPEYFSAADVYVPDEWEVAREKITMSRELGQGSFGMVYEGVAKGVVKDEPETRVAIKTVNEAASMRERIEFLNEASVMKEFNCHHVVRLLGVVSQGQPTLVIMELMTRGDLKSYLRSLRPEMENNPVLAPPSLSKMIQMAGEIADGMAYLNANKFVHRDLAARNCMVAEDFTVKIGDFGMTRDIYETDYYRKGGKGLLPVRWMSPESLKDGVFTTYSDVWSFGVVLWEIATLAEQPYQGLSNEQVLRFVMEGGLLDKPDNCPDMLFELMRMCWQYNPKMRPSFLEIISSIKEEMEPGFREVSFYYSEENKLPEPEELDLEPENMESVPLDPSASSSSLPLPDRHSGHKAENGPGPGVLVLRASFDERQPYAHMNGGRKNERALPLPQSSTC
Sequence of Fibroblast growth factor receptor 1 (P11362 whole entry): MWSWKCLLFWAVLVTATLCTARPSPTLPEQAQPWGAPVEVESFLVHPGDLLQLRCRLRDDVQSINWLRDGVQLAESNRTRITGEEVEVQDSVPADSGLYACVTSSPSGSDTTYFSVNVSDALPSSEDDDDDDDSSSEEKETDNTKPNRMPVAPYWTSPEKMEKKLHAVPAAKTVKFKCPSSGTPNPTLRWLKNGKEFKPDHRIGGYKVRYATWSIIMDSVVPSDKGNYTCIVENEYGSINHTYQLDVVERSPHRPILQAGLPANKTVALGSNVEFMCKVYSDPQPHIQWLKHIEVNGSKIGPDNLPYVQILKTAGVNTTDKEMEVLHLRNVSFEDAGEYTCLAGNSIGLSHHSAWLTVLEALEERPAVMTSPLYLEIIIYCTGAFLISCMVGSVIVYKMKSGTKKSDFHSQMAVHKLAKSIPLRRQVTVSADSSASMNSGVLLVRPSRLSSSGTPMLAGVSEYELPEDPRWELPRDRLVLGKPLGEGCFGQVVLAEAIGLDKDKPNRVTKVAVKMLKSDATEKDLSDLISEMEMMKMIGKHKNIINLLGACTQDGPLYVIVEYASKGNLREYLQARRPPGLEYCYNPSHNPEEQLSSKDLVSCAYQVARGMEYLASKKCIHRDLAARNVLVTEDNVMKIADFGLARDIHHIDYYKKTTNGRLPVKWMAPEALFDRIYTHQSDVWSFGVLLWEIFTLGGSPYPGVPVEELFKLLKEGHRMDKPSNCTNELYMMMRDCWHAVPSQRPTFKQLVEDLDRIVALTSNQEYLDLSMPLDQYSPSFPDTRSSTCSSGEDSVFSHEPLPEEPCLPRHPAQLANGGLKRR
Sequence of Casein kinase II subunit alpha (P68400 whole entry): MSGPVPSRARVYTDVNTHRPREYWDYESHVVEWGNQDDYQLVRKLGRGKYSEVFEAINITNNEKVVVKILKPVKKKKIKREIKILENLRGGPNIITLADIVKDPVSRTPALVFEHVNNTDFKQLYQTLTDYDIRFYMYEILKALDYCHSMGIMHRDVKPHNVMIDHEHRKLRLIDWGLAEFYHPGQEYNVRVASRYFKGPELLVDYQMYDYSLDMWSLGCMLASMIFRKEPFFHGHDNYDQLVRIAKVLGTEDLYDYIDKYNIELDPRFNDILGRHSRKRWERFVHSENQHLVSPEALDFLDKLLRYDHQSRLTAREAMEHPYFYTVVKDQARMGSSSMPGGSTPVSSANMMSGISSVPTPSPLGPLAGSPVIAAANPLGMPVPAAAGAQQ
Sequence of Vascular endothelial growth factor receptor 2 (P35968 whole entry): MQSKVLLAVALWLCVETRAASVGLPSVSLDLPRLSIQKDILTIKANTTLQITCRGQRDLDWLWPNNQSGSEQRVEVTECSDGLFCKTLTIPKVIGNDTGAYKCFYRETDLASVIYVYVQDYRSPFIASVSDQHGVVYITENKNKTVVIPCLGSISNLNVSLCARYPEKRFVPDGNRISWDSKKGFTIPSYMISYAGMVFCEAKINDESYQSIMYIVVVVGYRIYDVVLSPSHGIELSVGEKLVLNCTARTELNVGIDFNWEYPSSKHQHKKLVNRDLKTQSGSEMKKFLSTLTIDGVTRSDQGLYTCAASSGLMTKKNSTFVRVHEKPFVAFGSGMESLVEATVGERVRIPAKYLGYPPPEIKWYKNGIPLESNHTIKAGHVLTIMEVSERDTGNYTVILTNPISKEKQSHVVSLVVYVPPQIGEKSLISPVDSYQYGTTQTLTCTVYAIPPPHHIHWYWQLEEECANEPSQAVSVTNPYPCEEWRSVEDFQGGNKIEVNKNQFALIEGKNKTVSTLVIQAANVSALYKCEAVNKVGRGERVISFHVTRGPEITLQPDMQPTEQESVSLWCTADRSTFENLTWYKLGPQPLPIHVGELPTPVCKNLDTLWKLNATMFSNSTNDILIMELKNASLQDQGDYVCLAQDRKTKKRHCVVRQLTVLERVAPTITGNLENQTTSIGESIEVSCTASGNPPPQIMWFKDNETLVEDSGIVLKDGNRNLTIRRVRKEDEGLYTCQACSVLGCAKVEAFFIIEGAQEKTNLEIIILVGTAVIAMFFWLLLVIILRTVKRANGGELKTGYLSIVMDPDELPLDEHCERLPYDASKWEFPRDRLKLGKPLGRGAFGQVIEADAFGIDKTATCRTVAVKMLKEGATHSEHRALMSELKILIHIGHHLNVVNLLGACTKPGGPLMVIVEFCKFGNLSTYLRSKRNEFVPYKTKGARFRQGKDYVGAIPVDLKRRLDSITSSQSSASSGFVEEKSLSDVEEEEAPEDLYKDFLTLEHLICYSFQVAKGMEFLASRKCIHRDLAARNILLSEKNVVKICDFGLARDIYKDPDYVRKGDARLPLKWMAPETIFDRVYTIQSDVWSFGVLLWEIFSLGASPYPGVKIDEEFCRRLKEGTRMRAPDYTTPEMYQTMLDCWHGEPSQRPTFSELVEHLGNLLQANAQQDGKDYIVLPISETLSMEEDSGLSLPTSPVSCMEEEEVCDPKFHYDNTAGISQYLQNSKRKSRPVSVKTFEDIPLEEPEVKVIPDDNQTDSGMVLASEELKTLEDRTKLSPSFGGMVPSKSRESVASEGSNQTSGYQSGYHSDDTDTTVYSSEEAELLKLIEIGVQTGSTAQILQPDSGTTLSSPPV
Sequence of Ribosomal protein S6 kinase alpha-3 (P51812 whole entry): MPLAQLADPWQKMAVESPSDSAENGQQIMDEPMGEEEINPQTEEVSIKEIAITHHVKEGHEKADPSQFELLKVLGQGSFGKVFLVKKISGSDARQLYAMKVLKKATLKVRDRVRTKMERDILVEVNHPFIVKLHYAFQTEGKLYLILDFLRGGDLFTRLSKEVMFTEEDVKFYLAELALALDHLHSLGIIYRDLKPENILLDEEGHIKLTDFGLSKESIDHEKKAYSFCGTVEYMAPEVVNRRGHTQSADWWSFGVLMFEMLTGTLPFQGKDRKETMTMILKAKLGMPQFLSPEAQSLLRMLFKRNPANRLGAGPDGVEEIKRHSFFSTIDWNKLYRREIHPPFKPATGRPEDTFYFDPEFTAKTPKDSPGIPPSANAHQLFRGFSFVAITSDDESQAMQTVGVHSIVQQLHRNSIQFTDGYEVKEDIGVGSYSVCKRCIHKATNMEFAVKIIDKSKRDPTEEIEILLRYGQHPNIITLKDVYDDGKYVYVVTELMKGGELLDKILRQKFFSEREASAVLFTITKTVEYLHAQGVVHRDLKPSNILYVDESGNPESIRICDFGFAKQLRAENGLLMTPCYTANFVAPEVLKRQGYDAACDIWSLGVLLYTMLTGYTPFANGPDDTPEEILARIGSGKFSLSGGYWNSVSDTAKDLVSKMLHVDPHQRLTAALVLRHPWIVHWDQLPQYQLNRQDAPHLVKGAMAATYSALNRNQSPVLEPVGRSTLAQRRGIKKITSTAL
Sequence of Glycogen synthase kinase-3 beta (P49841 whole entry): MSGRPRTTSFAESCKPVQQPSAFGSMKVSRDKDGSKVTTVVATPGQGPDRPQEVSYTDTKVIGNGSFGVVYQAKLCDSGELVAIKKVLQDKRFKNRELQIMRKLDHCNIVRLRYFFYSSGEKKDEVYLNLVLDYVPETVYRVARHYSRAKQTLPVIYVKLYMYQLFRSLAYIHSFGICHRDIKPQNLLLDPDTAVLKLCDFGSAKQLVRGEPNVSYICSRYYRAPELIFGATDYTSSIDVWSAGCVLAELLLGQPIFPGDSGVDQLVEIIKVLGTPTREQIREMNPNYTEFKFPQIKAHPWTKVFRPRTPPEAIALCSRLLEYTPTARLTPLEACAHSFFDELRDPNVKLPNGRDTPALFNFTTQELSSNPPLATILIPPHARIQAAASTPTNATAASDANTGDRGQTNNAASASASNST

CC1CN(c2nc3ccccn3c(=O)c2N)CC(C)O1 (stereo unspecified) [Kinase inhibitor, A1]
IC50 [1]: 97 µM
IC50 [2]: 114 µM
IC50 [3]: 196 µM
IC50 [4]: 21 µM
IC50 [5]: 18 µM

Nc1cnc2c(-c3c(F)cccc3F)cccn2c1=O [Kinase inhibitor, A2]
IC50 [6]: 252 µM
IC50 [7]: 24 µM
IC50 [8]: 26 µM
IC50 [9]: 188 µM
IC50 [10]: 25 µM
IC50 [5]: 131 µM
IC50 [11]: 47 µM
IC50 [12]: 4 µM

Nc1nc2cnc(-c3ccccc3)cn2n1 [Kinase inhibitor, B1]
IC50 [1]: 20 µM
IC50 [13]: 39 µM
IC50 [7]: 11 µM
IC50 [14]: 21 µM
IC50 [15]: 17 µM
IC50 [11]: 25 µM
IC50 [12]: 6 µM

COc1ccc(-c2cc3c(=O)[nH]cnc3s2)cc1OC [Kinase inhibitor, C2]
IC50 [16]: 110 µM
IC50 [17]: 25 µM

CC(C)(C)Nc1c(C2CC2)[nH]c2ncnn12 [Kinase inhibitor, D1]
IC50 [6]: 469 µM
IC50 [18]: 158 µM

O=c1cc(-c2ccccc2F)nc2[nH]ccn12 [Kinase inhibitor, F3]
IC50 [19]: 22 µM
IC50 [20]: 14 µM
